Values quoted from earlier work, collected in PubChem BioAssay AID1259409 (Chemical Carcinogenesis Research Information System (CCRIS), 2018).

System: rodent chemically induced tumor inhibition, incidence and multiplicity
Assay: CCRIS tumor inhibitor studies
Details: Dose [Inhibitor]: 0, Species: RAT

SMILES | tumour outcome (control, treated, inhibition, significance) (Carcinogen: N-METHYL-N'-NITRO-N-NITROSOGUANIDINE, 70-25-7, 6% IN DIET FOR 26 WK ADMINISTERED POST CARCINOGEN DOSE (STUDY DURATION: 52 WK ), Route [Inhibitor]: ORAL, Strain/Sex: WISTAR/MALE, Target Tissue: Type of Lesion: GLANDULAR STOMACH: ADENOCARCINOMA, Dose [Carcinogen]: 50 UG/ML DRINKING WATER FOR 26 WK) | tumour outcome (control, treated, inhibition, significance) (Carcinogen: 7,12-DIMETHYLBENZ[A]ANTHRACENE, 57-97-6, 2 MG 6 D/WK FOR 169 D BEGINNING 5 D POST CARCINOGEN DOSE (STUDY DURATION: 174 D), Route [Inhibitor]: SUBCUTANEOUS, Strain/Sex: SPRAGUE-DAWLEY/FEMALE, Target Tissue: Type of Lesion: MAMMARY GLAND: MALIGNANT TUMORS, Dose [Carcinogen]: 20 MG IN 1 ML SESAME OIL ONCE, Promoter: NONE USED)
N[C@@H](Cc1ccccc1)C(=O)O | 18/25 (72%), 9/25 (36%), 50%, not calculated | –
C#C[C@]1(O)CC[C@H]2[C@@H]3CCC4=Cc5oncc5C[C@]4(C)[C@H]3CC[C@@]21C | – | 91%, 67%, 26%, p<0.05
